Test results as given in PubChem BioAssay (NCI).
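Where inhibition never reached the appropriate level, the endpoint shown equals the highest concentration tested. Otherwise, values were interpolated linearly from a five-concentration, 48-hour dose response in 96-well plates. GI50 is the concentration that inhibits growth by half. TGI: total growth inhibition.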

Assays:
Assay in all cases: growth of human tumour cells (NCI), 48 h
A549 NSCLC = test system: A549 NSCLC
CAKI-1 renal = test system: CAKI-1 renal
U251 CNS = test system: U251 CNS
HCC-2998 colon = test system: HCC-2998 colon
IGROV1 ovarian = test system: IGROV1 ovarian
LOX IMVI melanoma = test system: LOX IMVI melanoma
UACC-257 melanoma = test system: UACC-257 melanoma
UACC-62 melanoma = test system: UACC-62 melanoma
HL-60(TB) leukemia = test system: HL-60(TB) leukemia
OVCAR-8 ovarian = test system: OVCAR-8 ovarian
SK-OV-3 ovarian = test system: SK-OV-3 ovarian
MOLT-4 leukemia = test system: MOLT-4 leukemia
MALME-3M melanoma = test system: MALME-3M melanoma

| Compound | TGI (A549 NSCLC) [µM] | TGI (CAKI-1 renal) [µM] | TGI (U251 CNS) [µM] | TGI (HCC-2998 colon) [µM] | TGI (IGROV1 ovarian) [µM] | TGI (LOX IMVI melanoma) [µM] | TGI (UACC-257 melanoma) [µM] | TGI (UACC-62 melanoma) [µM] | TGI (HL-60(TB) leukemia) [µM] | TGI (OVCAR-8 ovarian) [µM] | TGI (SK-OV-3 ovarian) [µM] | TGI (MOLT-4 leukemia) [µM] | TGI (MALME-3M melanoma) [µM] | GI50 (CAKI-1 renal) [µM] | GI50 (MALME-3M melanoma) [µM] | GI50 (HCC-2998 colon) [µM] | GI50 (IGROV1 ovarian) [µM] | GI50 (LOX IMVI melanoma) [µM] | GI50 (UACC-62 melanoma) [µM] |
| --- | --- | --- | --- | --- | --- | --- | --- | --- | --- | --- | --- | --- | --- | --- | --- | --- | --- | --- | --- |
| COc1ccc(-n2c(=O)c3[nH]c(=S)[nH]c3n(-c3ccc(OC)cc3)c2=S)cc1 | > 100 | > 100 | > 100 | > 100 | > 100 | > 100 | > 100 | > 100 | > 100 | > 100 | > 100 | > 100 | – | – | – | – | – | – | – |
| NS(=O)(=O)c1nc(S(=O)(=O)O)c2[nH]cnc2n1 | > 100 | > 100 | > 100 | – | > 100 | > 100 | > 100 | > 100 | – | > 100 | > 100 | > 100 | > 100 | – | – | – | – | – | – |
| COC(C/C(=C/CO[Si](C(C)C)(C(C)C)C(C)C)C(=O)N(COCC[Si](C)(C)C)c1ccccc1I)OC | > 100 | > 100 | 94.8 | > 100 | 27.4 | 37.8 | 69.9 | 50.7 | – | > 100 | > 100 | > 100 | – | – | – | – | – | – | – |
| O=c1c2cc(C(F)(F)F)ccc2sc2c(NCCCNCCO)nc3ccccc3c12 | – | 2.81 | – | 3.29 | 2.62 | 2.7 | – | 3.25 | – | – | – | – | 3.09 | 1.48 | 1.59 | 1.67 | 1.23 | 1.35 | 1.78 |
| O=c1c2c([nH]c3nccn13)CCC2 | > 10 | > 10 | > 10 | – | > 10 | > 10 | > 10 | > 10 | > 10 | > 10 | > 10 | > 10 | > 10 | – | – | – | – | – | – |
| CC1CC/C(=C\c2ccc(F)cc2)C2=C1C(c1ccc(F)cc1)N1C(=O)CSC1=N2 (stereo unspecified) | – | > 100 | > 100 | – | > 100 | > 100 | > 100 | > 100 | > 100 | > 100 | > 100 | 60.6 | > 100 | – | – | – | – | – | – |
| O=C1COc2cc(N3CCN(c4cccc(C(F)(F)F)c4)CC3)ccc2N1 | > 100 | > 100 | > 100 | > 100 | > 100 | > 100 | > 100 | > 100 | > 100 | > 100 | > 100 | > 100 | – | – | – | – | – | – | – |
| C/C=C(\C)C(=O)OC1CC(OC(C)=O)C2(C(=O)OC)COC3C2C1(C)C1C2(C(=O)OC)OCC1(C3O)C1(O)C3CC(C4(O)C=COC4O3)C1(C)O2 (stereo unspecified) | > 100 | > 100 | > 100 | > 100 | > 100 | > 100 | > 100 | > 100 | > 100 | > 100 | > 100 | > 100 | – | – | – | – | – | – | – |
| N#Cc1nc2cc(Cl)ccc2nc1N1CCN(c2ccc([N+](=O)[O-])cc2)CC1 | > 100 | > 100 | > 100 | > 100 | – | – | > 100 | > 100 | – | > 100 | > 100 | > 100 | – | – | – | – | – | – | – |
| CC(C)(C)OC(=O)NC12C3C4C1C1C2C3C41NC(=O)OC(C)(C)C (stereo unspecified) | > 100 | > 100 | > 100 | > 100 | > 100 | > 100 | > 100 | > 100 | 53.9 | > 100 | – | 40.4 | – | – | – | – | – | – | – |
| NCCCN(CCCCN(CCCN)C(=O)OCc1ccccc1)C(=O)OCc1ccccc1 | > 100 | > 100 | > 100 | > 100 | > 100 | > 100 | > 100 | > 100 | > 100 | > 100 | > 100 | > 100 | – | – | – | – | – | – | – |
| CCc1cccc2c3c([nH]c12)-c1ccccc1NC(=O)C3 | > 100 | > 100 | > 100 | – | > 100 | > 100 | > 100 | > 100 | > 100 | > 100 | > 100 | > 100 | – | – | – | – | – | – | – |
| O=C(COc1ccc(OCC(=O)N2C(=O)CC(=O)N(c3ccc(Cl)cc3)C2=S)cc1)N1C(=O)CC(=O)N(c2ccc(Cl)cc2)C1=S | > 100 | – | > 100 | > 100 | > 100 | – | > 100 | 60.5 | – | – | > 100 | > 100 | 93.5 | – | – | – | – | – | – |
| Cc1cc2[nH]c3c(C#N)c(-c4ccccc4)c(N=Nc4ccc(F)cc4)c(=O)n3c2cc1C | > 100 | > 100 | > 100 | > 100 | – | > 100 | > 100 | – | – | – | > 100 | – | – | – | – | – | – | – | – |
| Cc1ccc(S(=O)(=O)NC(CCC(=O)NNc2ccccc2)C(=O)NNc2ccccc2)cc1 (stereo unspecified) | 48.8 | > 100 | > 100 | – | > 100 | > 100 | > 100 | > 100 | > 100 | > 100 | > 100 | > 100 | > 100 | – | – | – | – | – | – |
| C1=NCCNCCNCCN=Cc2ccc(cc2)OCc2cccc(n2)COc2ccc1cc2 | > 100 | > 100 | > 100 | – | > 100 | – | > 100 | > 100 | > 100 | > 100 | > 100 | > 100 | > 100 | – | – | – | – | – | – |
| Cc1ccc(S(=O)(=O)NC(=O)NC(Cc2ccc(O)cc2)C(=O)O)cc1 (stereo unspecified) | > 100 | – | > 100 | – | > 100 | > 100 | > 100 | – | > 100 | > 100 | > 100 | > 100 | > 100 | – | – | – | – | – | – |
| C#CC(O)(c1nc2ccccc2s1)c1nc2ccccc2s1 | > 100 | > 100 | 44 | – | 31.6 | 35.7 | 88.5 | 26.1 | 46.1 | 51.5 | – | > 100 | > 100 | – | – | – | – | – | – |
| CNc1nnc(CCCCCCCCc2nnc(NC)o2)o1 | > 100 | 31.3 | 63.7 | – | > 100 | 38.5 | > 100 | – | > 100 | > 100 | > 100 | > 100 | – | – | – | – | – | – | – |
| COc1ccc(C2C3=C(N=C4SC(C(C)=O)=C(C)N42)c2ccccc2CC3)cc1 (stereo unspecified) | > 100 | – | > 100 | > 100 | > 100 | > 100 | > 100 | > 100 | 58 | > 100 | > 100 | – | – | – | – | – | – | – | – |
| Cn1nc2ccc(Nc3cc(=O)[nH]c4ccc5nn(C)nc5c34)cc2n1 | > 100 | > 100 | > 100 | > 100 | > 100 | – | > 100 | > 100 | – | > 100 | > 100 | > 100 | > 100 | – | – | – | – | – | – |
| CC1=NN(c2cccc(Cl)c2)C2(C1=Cc1ccc(O)cc1)C(Cl)C(=O)N2c1nc2ccccc2s1 (stereo unspecified) | – | 85.6 | 49.2 | 35 | 65.9 | 47.5 | > 100 | – | > 100 | 87.8 | 57.4 | 44.2 | – | – | – | – | – | – | – |
| O=c1[nH]c(=O)n(C2CC(O)C(CO)O2)cc1Oc1ccccc1 (stereo unspecified) | > 100 | > 100 | > 100 | – | > 100 | > 100 | > 100 | > 100 | > 100 | > 100 | > 100 | > 100 | > 100 | – | – | – | – | – | – |
| CN(Cc1cnc2nc(N)nc(N)c2n1)c1ccc(C(=O)NC23CC4CC(CC(C4)C2)C3)cc1 | – | 27.8 | 44.3 | – | 21.8 | 53 | 25.6 | 19.3 | > 100 | 19.9 | 31.9 | 48.5 | 26.3 | – | – | – | – | – | – |
| FC(F)(F)c1cc(N(C2c3ccccc3C=Cc3ccccc32)P(Cl)Cl)cc(C(F)(F)F)c1 | 44.1 | 59 | 33.8 | – | 92.3 | 36.1 | 39.9 | – | 81.6 | 35.7 | 69.8 | 54.4 | 36 | – | – | – | – | – | – |
| O[C@@H]1C=C[C@]23CCN(Cc4cc5c(cc42)OCO5)[C@@H]3C1 | > 100 | > 100 | > 100 | – | > 100 | > 100 | > 100 | > 100 | > 100 | > 100 | > 100 | > 100 | > 100 | – | – | – | – | – | – |
| O=C(c1ccccc1)c1ccc2nc(-c3c(Cl)c(Cl)c(Cl)c(Cl)c3-c3nnc(-c4ccccc4)o3)[nH]c2c1 | > 100 | > 100 | > 100 | – | > 100 | > 100 | > 100 | – | > 100 | > 100 | > 100 | > 100 | > 100 | – | – | – | – | – | – |
| Cc1cn(C2CCC(CO)(CF)O2)c(=O)[nH]c1=O (stereo unspecified) | > 100 | > 100 | > 100 | > 100 | > 100 | > 100 | > 100 | > 100 | > 100 | > 100 | > 100 | > 100 | – | – | – | – | – | – | – |
| CN1/C(=C/C=C/C=C/C=C2C(=O)c3ccccc3C2=O)C(C)(C)c2ccccc21 | > 100 | > 100 | – | – | > 100 | > 100 | 54.1 | 58.3 | > 100 | > 100 | > 100 | – | 94.1 | – | – | – | – | – | – |
